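In this assay, cells in 96-well plates receive the compound at five concentrations for 48 hours. Endpoints are linearly interpolated between the surrounding concentrations. The concentration for 50% growth inhibition is given as GI50. TGI marks complete inhibition of growth.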
Assays:
Assay in all cases: inhibition of tumour cell growth, NCI panel, 48 h
[1] = test system: 786-0 renal
[2] = test system: SNB-19 CNS
[3] = test system: NCI-H460 lung
[4] = test system: SF-295 CNS
[5] = test system: HOP-92 NSCLC
[6] = test system: HOP-62 NSCLC
[7] = test system: CCRF-CEM leukemia
[8] = test system: LOX IMVI melanoma
[9] = test system: SN12C renal
[10] = test system: RXF 393 renal
[11] = test system: RPMI-8226 leukemia
[12] = test system: NCI-H522 lung
[13] = test system: SF-539 CNS
[14] = test system: MDA-MB-435
[15] = test system: M14 melanoma
[16] = test system: SR leukemia
[17] = test system: U251 CNS
[18] = test system: OVCAR-3 ovarian
[19] = test system: DU-145 prostate
[20] = test system: K-562 leukemia
[21] = test system: OVCAR-5 ovarian
[22] = test system: PC-3 prostate
[23] = test system: SK-MEL-2 melanoma
[24] = test system: OVCAR-4 ovarian
[25] = test system: NCI/ADR-RES ovarian
[26] = test system: SNB-75 CNS
[27] = test system: ACHN renal
[28] = test system: UACC-62 melanoma
[29] = test system: BT-549 breast
[30] = test system: SW-620 colon
[31] = test system: IGROV1 ovarian
[32] = test system: SF-268 CNS
[33] = test system: OVCAR-8 ovarian
[34] = test system: HCC-2998 colon
[35] = test system: SK-MEL-5 melanoma
[36] = test system: COLO 205 colon
[37] = test system: HCT-15 colon
[38] = test system: MOLT-4 leukemia
[39] = test system: CAKI-1 renal
[40] = test system: A498 renal
[41] = test system: MALME-3M melanoma
[42] = test system: NCI-H23 lung
[43] = test system: MCF7 breast
[44] = test system: UACC-257 melanoma
[45] = test system: A549 NSCLC
[46] = test system: MDA-MB-231 breast
[47] = test system: KM12 colon
[48] = test system: UO-31 renal
[49] = test system: HCT-116 colon
[50] = test system: NCI-H226 lung
[51] = test system: HL-60(TB) leukemia
[52] = test system: T-47D breast
[53] = test system: HT29 colon
[54] = test system: HS 578T breast
[55] = test system: EKVX NSCLC
[56] = test system: TK-10 renal
[57] = test system: SK-OV-3 ovarian
[58] = test system: SK-MEL-28 melanoma

COc1cc(/C=C2\C(=O)Nc3cc(C)c(O)cc32)cc(OC)c1OC
GI50 [1]: 10.4 µM
TGI [1]: 23.5 µM
GI50 [2]: 10.6 µM
TGI [2]: 34.3 µM
GI50 [3]: 3.2 µM
TGI [3]: 11.7 µM
GI50 [4]: 6.03 µM
TGI [4]: 26.3 µM
GI50 [5]: 5.61 µM
TGI [5]: > 100 µM
GI50 [6]: 11.7 µM
TGI [6]: 37.4 µM
GI50 [7]: 2.89 µM
TGI [7]: 18.3 µM
GI50 [8]: 3.66 µM
TGI [8]: 14.4 µM
GI50 [9]: 6.07 µM
TGI [9]: 23.1 µM
GI50 [10]: 3.46 µM
TGI [10]: 13.4 µM
GI50 [11]: 1.47 µM
TGI [11]: 4.41 µM
GI50 [12]: 2.59 µM
TGI [12]: 12.1 µM
GI50 [13]: 5.41 µM
TGI [13]: 19.6 µM
GI50 [14]: 1.52 µM
TGI [14]: 3.7 µM
GI50 [15]: 4.45 µM
TGI [15]: 17.3 µM
GI50 [16]: 0.857 µM
TGI [16]: 5.84 µM
GI50 [17]: 3.54 µM
TGI [17]: 16.1 µM
GI50 [18]: 3.62 µM
TGI [18]: 12.8 µM
GI50 [19]: 3.67 µM
TGI [19]: 17.1 µM
GI50 [20]: 1.67 µM
TGI [20]: 10.4 µM
GI50 [21]: 13.5 µM
TGI [21]: 30.4 µM
GI50 [22]: 4.32 µM
TGI [22]: > 100 µM
GI50 [23]: 2.97 µM
TGI [23]: 14.5 µM
GI50 [24]: 8.23 µM
TGI [24]: > 67.7 µM
GI50 [25]: 5.01 µM
TGI [25]: 48.1 µM
GI50 [26]: 3.03 µM
TGI [26]: > 30 µM
GI50 [27]: 8.27 µM
TGI [27]: 24.6 µM
GI50 [28]: 3.82 µM
TGI [28]: 16.8 µM
GI50 [29]: 1.86 µM
TGI [29]: 6.26 µM
GI50 [30]: 4.08 µM
TGI [30]: 15.9 µM
GI50 [31]: 5.35 µM
TGI [31]: 21.3 µM
GI50 [32]: 5.34 µM
TGI [32]: 36 µM
GI50 [33]: 7.33 µM
TGI [33]: > 67.3 µM
GI50 [34]: 5.18 µM
TGI [34]: 17.5 µM
GI50 [35]: 2.52 µM
TGI [35]: 9.17 µM
GI50 [36]: 6.09 µM
TGI [36]: 22.8 µM
GI50 [37]: 2.84 µM
TGI [37]: 14.5 µM
GI50 [38]: 3.32 µM
TGI [38]: 16.7 µM
GI50 [39]: 2.98 µM
TGI [39]: 9.66 µM
GI50 [40]: 8.5 µM
TGI [40]: 25.4 µM
GI50 [41]: 0.454 µM
TGI [41]: 9.11 µM
GI50 [42]: 3.61 µM
TGI [42]: 23.7 µM
GI50 [43]: 2.44 µM
TGI [43]: 26.4 µM
GI50 [44]: 13.5 µM
TGI [44]: 42.7 µM
GI50 [45]: 6.13 µM
TGI [45]: > 79.6 µM
GI50 [46]: 3.25 µM
TGI [46]: 23.1 µM
GI50 [47]: 2.62 µM
TGI [47]: 11.4 µM
GI50 [48]: 4.94 µM
TGI [48]: 41.6 µM
GI50 [49]: 4.07 µM
TGI [49]: 15.8 µM
GI50 [50]: 15.6 µM
TGI [50]: 46.5 µM
GI50 [51]: 1.74 µM
TGI [51]: 5.84 µM
GI50 [52]: 3.93 µM
TGI [52]: 37.9 µM
GI50 [53]: 4.01 µM
TGI [53]: > 39.6 µM
GI50 [54]: 2.18 µM
TGI [54]: 9.93 µM
GI50 [55]: 4.08 µM
TGI [55]: 39 µM
GI50 [56]: 12.8 µM
TGI [56]: 40.4 µM
GI50 [57]: 7.34 µM
TGI [57]: 54.1 µM
GI50 [58]: 7.59 µM
TGI [58]: 23 µM

COc1ccc(C(=O)/C=C/c2ccc(C)cc2)cc1OC
GI50 [1]: 15.4 µM
TGI [1]: 28.7 µM
GI50 [2]: 12.8 µM
TGI [2]: 25.5 µM
GI50 [3]: 7.77 µM
TGI [3]: 20.5 µM
GI50 [4]: 12.1 µM
TGI [4]: 28.4 µM
GI50 [5]: 12.6 µM
TGI [5]: 27 µM
GI50 [6]: 14.6 µM
TGI [6]: 27.8 µM
GI50 [7]: 25.1 µM
TGI [7]: 61.2 µM
GI50 [8]: 13 µM
TGI [8]: 25.6 µM
GI50 [9]: 13.1 µM
TGI [9]: 26.9 µM
GI50 [10]: 12.2 µM
TGI [10]: 26.4 µM
GI50 [11]: 17.5 µM
TGI [11]: 47 µM
GI50 [12]: 11.1 µM
TGI [12]: 26.4 µM
GI50 [13]: 5.32 µM
TGI [13]: 18.2 µM
GI50 [14]: 15.5 µM
TGI [14]: 32 µM
GI50 [15]: 13.7 µM
TGI [15]: 26.5 µM
GI50 [16]: 2.4 µM
TGI [16]: 6.83 µM
GI50 [17]: 4.78 µM
TGI [17]: 17.3 µM
GI50 [18]: 2.55 µM
TGI [18]: 12.7 µM
GI50 [19]: 3.2 µM
TGI [19]: 14.4 µM
GI50 [20]: 8.31 µM
TGI [20]: 50.2 µM
GI50 [21]: 16.1 µM
TGI [21]: 29.6 µM
GI50 [22]: 15.4 µM
TGI [22]: 32.4 µM
GI50 [23]: 15.9 µM
TGI [23]: 40.1 µM
GI50 [24]: 12.2 µM
TGI [24]: 24.7 µM
GI50 [25]: 11.7 µM
TGI [25]: 28.3 µM
GI50 [26]: 8.93 µM
TGI [26]: 21.3 µM
GI50 [27]: 14.2 µM
TGI [27]: 28.1 µM
GI50 [29]: 14.9 µM
TGI [29]: 51.5 µM
GI50 [30]: 10.2 µM
TGI [30]: 21.8 µM
GI50 [31]: 12.3 µM
TGI [31]: 58.6 µM
GI50 [32]: 11.7 µM
TGI [32]: 24.4 µM
GI50 [33]: 11.8 µM
TGI [33]: 27.6 µM
GI50 [34]: 14.4 µM
TGI [34]: 27.4 µM
GI50 [35]: 12.5 µM
TGI [35]: 25 µM
GI50 [36]: 10.1 µM
TGI [36]: 21.6 µM
GI50 [37]: 8.52 µM
TGI [37]: 22.1 µM
GI50 [38]: 16.6 µM
TGI [38]: 47.2 µM
GI50 [39]: 18.1 µM
TGI [39]: 52.8 µM
GI50 [40]: 12.5 µM
TGI [40]: 25 µM
GI50 [41]: 15.9 µM
TGI [41]: 36 µM
GI50 [42]: 10.4 µM
TGI [42]: 22.8 µM
GI50 [43]: 3.09 µM
TGI [43]: 15.1 µM
GI50 [44]: 16.2 µM
TGI [44]: 30.3 µM
GI50 [45]: 11.2 µM
TGI [45]: 26 µM
GI50 [46]: 14.3 µM
TGI [46]: 33.1 µM
GI50 [47]: 5.68 µM
TGI [47]: 19 µM
GI50 [48]: 11 µM
TGI [48]: 26.8 µM
GI50 [49]: 4.69 µM
TGI [49]: 17.7 µM
GI50 [50]: 13.5 µM
TGI [50]: 31.5 µM
GI50 [51]: 23.2 µM
TGI [51]: 62.4 µM
GI50 [52]: 3.05 µM
TGI [52]: 15.8 µM
GI50 [53]: 3.93 µM
TGI [53]: 15.3 µM
GI50 [54]: 12.5 µM
TGI [54]: 30.3 µM
GI50 [55]: 18.4 µM
TGI [55]: 42.9 µM
GI50 [56]: 16.4 µM
TGI [56]: 37.7 µM
GI50 [57]: 14 µM
TGI [57]: 27.4 µM
GI50 [58]: 16.5 µM
TGI [58]: 30.1 µM
